Measured values as given in patent US4288590A, “7 -[Dα-(4-Hydroxy-1,5-naphthyridine-3-carboxamido)-α-arylacetam ido]-3-(N,N-dimethyl-aminomethylpyridinium) methyl-3-cephem-4-carboxylates” (Bristol-Myers Company, priority 1980, dated 1981).
≈ marks a conversion by molar mass, not a printed value. Structures can show the parent of a compound that is named as a salt. Where two headings read alike, the source gives them in different places.

Assays:
Assay in all cases: MIC, serial two-fold agar dilution (Table 1)
Type in all cases: cell-based
E. cloacae A9656 = details: Enterobacter cloacae, Mueller-Hinton agar
Protocol: (§1) Minimum inhibitory concentrations (MIC) of BB-S 651, BB-S 669 and BB-S 676 were determined by serial two-fold agar dilution method using Steers' apparatus on Mueller-Hinton agar plate against 15 test organisms for primary screening as shown in Table 1.

E. coli A15148 = details: Escherichia coli; E. coli A15148, cephalothin-resistant; Mueller-Hinton agar
Protocol: as §1

E. coli A15164 = details: Escherichia coli; E. coli A15164, cephalothin-resistant; Mueller-Hinton agar
Protocol: as §1

E. coli A9660 = details: Escherichia coli; E. coli A9660, cephalothin-sensitive; Mueller-Hinton agar
Protocol: as §1

E. coli Juhl A15119 = details: Escherichia coli, JUHLA15119; E. coli Juhl A15119, cephalothin-sensitive; Mueller-Hinton agar
Protocol: as §1

Ps. aeruginosa A15150 = details: Pseudomonas aeruginosa, Mueller-Hinton agar
Protocol: as §1

Ps. aeruginosa A20229 = details: Pseudomonas aeruginosa, Mueller-Hinton agar
Protocol: as §1

Ps. aeruginosa A20717 = details: Pseudomonas aeruginosa, Mueller-Hinton agar
Protocol: as §1

Ps. aeruginosa A20718 = details: Pseudomonas aeruginosa, Mueller-Hinton agar
Protocol: as §1

Ps. aeruginosa A9843 = details: Pseudomonas aeruginosa, Mueller-Hinton agar
Protocol: as §1

S. aureus #193 = details: Staphylococcus aureus
Protocol: as §1

S. aureus 209P A9497 = details: Staphylococcus aureus
Protocol: as §1

[1] = system: S. aureus BX-1633-2 A9606; details: Staphylococcus aureus, BX16332A9606
Protocol: as §1

S. aureus Smith A9537 = details: Staphylococcus aureus, SMITHA9537, Mueller-Hinton agar
Protocol: as §1

S. marcescens A20019 = details: Serratia marcescens, Mueller-Hinton agar
Protocol: as §1

[2] = S. aureus #193, penicillinase-producing, Mueller-Hinton agar, read-out: MIC
[3] = S. aureus BX-1633-2 A9606, penicillinase-producing, Mueller-Hinton agar, read-out: MIC
[4] = S. aureus 209P A9497, Mueller-Hinton agar, read-out: MIC

| SMILES | MIC (E. cloacae A9656) [µg/mL] | MIC (E. coli A15148) [µg/mL] | MIC (E. coli A15164) [µg/mL] | MIC (E. coli A9660) [µg/mL] | MIC (E. coli Juhl A15119) [µg/mL] | MIC (Ps. aeruginosa A15150) [µg/mL] | MIC (Ps. aeruginosa A20229) [µg/mL] | MIC (Ps. aeruginosa A20717) [µg/mL] | MIC (Ps. aeruginosa A20718) [µg/mL] | MIC (Ps. aeruginosa A9843) [µg/mL] | MIC (S. aureus #193; [2]) [µg/mL] | MIC (S. aureus 209P A9497; 209P) [µg/mL] | MIC [1, 3] [µg/mL] | MIC (S. aureus Smith A9537) [µg/mL] | MIC (S. marcescens A20019) [µg/mL] | MIC (S. aureus 209P A9497; [4]) [µg/mL] | MIC (S. aureus #193) [µg/mL] | MIC [1] [µg/mL] |
| --- | --- | --- | --- | --- | --- | --- | --- | --- | --- | --- | --- | --- | --- | --- | --- | --- | --- | --- |
| CN(C)Cc1cc[n+](CC2=C(C(=O)[O-])N3C(=O)C(NC(=O)[C@H](NC(=O)c4cnc5cccnc5c4O)c4ccc(O)cc4)C3SC2)cc1 (stereo partly drawn) [BB-S 669, 7-[D-α-(4-Hydroxy-1,5-naphthyridine-3-carboxamido)-α-(4-hydroxyphenyl)acetamido]-3-(4-N,N-dimethylaminomethylpyridinium)methyl-3-cephem-4-carboxylate Hydrochloride] | 3.1 | 0.8 | 6.3 | 0.8 | 1.6 | 0.8 | 1.6 | 3.1 | 0.8 | 1.6 | 25 | 3.1 | 25 | 6.3 | 12.5 | – | – | – |
| CN(C)Cc1ccc[n+](CC2=C(C(=O)[O-])N3C(=O)C(NC(=O)[C@H](NC(=O)c4cnc5cccnc5c4O)c4ccccc4)C3SC2)c1 (stereo partly drawn) [BB-S 676, 7-[D-α-(4-Hydroxy-1,5-naphthyridine-3-carboxamido)α-phenylacetamido]-3-(3-N,N-dimethylaminomethylpyridinium)methyl-3-cephem-4-carboxylateHydrochloride] | 50 | 6.3 | 50 | 3.1 | 12.5 | 1.6 | 3.1 | 6.3 | 1.6 | 3.1 | 6.3 | – | 6.3 | 3.1 | 50 | 1.6 | – | – |
| CC1(C)S[C@@H]2[C@H](NC(=O)C(C(=O)O)c3ccccc3)C(=O)N2[C@H]1C(=O)O (stereo partly drawn) [Carbenicillin, reference compound] | 3.1 (≈ 8.19 µM) | 3.1 (≈ 8.19 µM) | 6.3 (≈ 16.6 µM) | 0.8 (≈ 2.11 µM) | 3.1 (≈ 8.19 µM) | 25 (≈ 66.1 µM) | 50 (≈ 132 µM) | > 100 | 25 (≈ 66.1 µM) | 50 (≈ 132 µM) | – | – | – | 0.2 (≈ 0.529 µM) | 3.1 (≈ 8.19 µM) | 0.2 (≈ 0.529 µM) | 12.5 (≈ 33 µM) | 12.5 (≈ 33 µM) |
